Converted amounts (≈) assume the structure as drawn. Square brackets hold non-standard residues; d marks the D form. Peptide text beside a SMILES is read from it. * marks the point of attachment. ξ: configuration not given here. Pro(3ξ,4ξ-(CH2)4) = O=C(O)[C@H]1NCC2CCCCC21; Phe(4-F) = N[C@@H](Cc1ccc(F)cc1)C(=O)O; Tic = O=C(O)[C@@H]1Cc2ccccc2CN1; X1 = CC(=O)NC(=O)[C@H](CN)N*; Orn = NCCC[C@H](N)C(=O)O; ξE = NC(CCC(=O)O)C(=O)O; Dap = NC[C@H](N)C(=O)O; ξL = CC(C)CC(N)C(=O)O; GABA = NCCCC(=O)O; βAla = NCCC(=O)O
Legend:
Assay type in all cases: functional
Acinetobacter baumannii = assay: Antibacterial activity against Acinetobacter baumannii WRAIR clinical isolate 13 after 24 hrs by broth microdilution method; conditions: WRAIR clinical isolate 13, 24 h
Klebsiella pneumoniae = assay: Antibacterial activity against Klebsiella pneumoniae BAMS clinical isolate 07-18 after 24 hrs by broth microdilution method; conditions: BAMS clinical isolate 07-18, 24 h
Pseudomonas aeruginosa = assay: Antibacterial activity against Pseudomonas aeruginosa PAO1 after 24 hrs by broth microdilution method; conditions: PAO1, 24 h
Klebsiella aerogenes = assay: Antibacterial activity against Enterobacter aerogenes after 24 hrs by broth microdilution method
Staphylococcus aureus = assay: Antibacterial activity against methicillin-sensitive Staphylococcus aureus UAMS-1 after 24 hrs by broth microdilution method; conditions: UAMS-1, 24 h
Enterococcus faecium = assay: Antibacterial activity against Enterococcus faecium MMC4 after 24 hrs by broth microdilution method; conditions: MMC4, 24 h

SMILES	MBC (Acinetobacter baumannii) [mg/L]	MIC (Acinetobacter baumannii) [mg/L]	MBC (Klebsiella pneumoniae) [mg/L]	MIC (Klebsiella pneumoniae) [mg/L]	MBC (Pseudomonas aeruginosa) [mg/L]	MIC (Pseudomonas aeruginosa) [mg/L]	MBC (Klebsiella aerogenes) [mg/L]	MIC (Klebsiella aerogenes) [mg/L]	MBC (Staphylococcus aureus) [mg/L]	MIC (Staphylococcus aureus) [mg/L]	MBC (Enterococcus faecium) [mg/L]	MIC (Enterococcus faecium) [mg/L]
CC(C)C[C@H](NC(=O)[C@@H](N)CCCCN)C(=O)N1Cc2ccccc2C[C@H]1C(=O)N1CC2CCCCC2[C@H]1C(=O)NCC(=O)N[C@@H](CCCCN)C(=O)N1Cc2ccccc2C[C@H]1C(=O)N1CC2CCCCC2[C@H]1C(=O)NCC(=O)N[C@@H](Cc1ccccc1)C(=O)N1Cc2ccccc2C[C@H]1C(=O)N1CC2CCCCC2[C@H]1C(=O)NCC(=O)N[C@@H](CCCCN)C(=O)N1Cc2ccccc2C[C@H]1C(=O)N1CC2CCCCC2[C@H]1C(=O)NCC(=O)N[C@@H](Cc1ccccc1)C(=O)N1Cc2ccccc2C[C@H]1C(=O)N1CC2CCCCC2[C@H]1C(=O)NCC(=O)N[C@@H](CCCCN)C(=O)N1Cc2ccccc2C[C@H]1C(=O)N1CC2CCCCC2[C@H]1C(=O)N[C@@H](CCCCN)C(=O)N[C@@H](CCCCN)C(=O)N[C@@H](CCCCN)C(=O)N[C@@H](CCCCN)C(N)=O (stereo partly specified) (H-KL[Tic][Pro(3ξ,4ξ-(CH2)4)]GK[Tic][Pro(3ξ,4ξ-(CH2)4)]GF[Tic][Pro(3ξ,4ξ-(CH2)4)]GK[Tic][Pro(3ξ,4ξ-(CH2)4)]GF[Tic][Pro(3ξ,4ξ-(CH2)4)]GK[Tic][Pro(3ξ,4ξ-(CH2)4)]KKKK-NH2)	12.5 (≈ 3.47 µM)	12.5 (≈ 3.47 µM)	50 (≈ 13.9 µM)	50 (≈ 13.9 µM)	50 (≈ 13.9 µM)	50 (≈ 13.9 µM)	50 (≈ 13.9 µM)	50 (≈ 13.9 µM)	50 (≈ 13.9 µM)	50 (≈ 13.9 µM)	25 (≈ 6.95 µM)	6.25 (≈ 1.74 µM)
CC(C)C[C@H](NC(=O)[C@@H](N)CCCN)C(=O)N1Cc2ccccc2C[C@H]1C(=O)N1CC2CCCCC2[C@H]1C(=O)N[C@@H](CCCN)C(=O)N1Cc2ccccc2C[C@H]1C(=O)N1CC2CCCCC2[C@H]1C(=O)N[C@@H](Cc1ccccc1)C(=O)N1Cc2ccccc2C[C@H]1C(=O)N1CC2CCCCC2[C@H]1C(=O)N[C@@H](CCCN)C(=O)N1Cc2ccccc2C[C@H]1C(=O)N1CC2CCCCC2[C@H]1C(=O)N[C@@H](Cc1ccccc1)C(=O)N1Cc2ccccc2C[C@H]1C(=O)N1CC2CCCCC2[C@H]1C(=O)N[C@@H](CCCN)C(=O)N1Cc2ccccc2C[C@H]1C(=O)N1CC2CCCCC2[C@H]1C(=O)N[C@@H](CCCN)C(=O)N[C@@H](CCCN)C(=O)N[C@@H](CCCN)C(=O)N[C@@H](CCCN)C(N)=O (stereo partly specified) (H-[Orn]L[Tic][Pro(3ξ,4ξ-(CH2)4)][Orn][Tic][Pro(3ξ,4ξ-(CH2)4)]F[Tic][Pro(3ξ,4ξ-(CH2)4)][Orn][Tic][Pro(3ξ,4ξ-(CH2)4)]F[Tic][Pro(3ξ,4ξ-(CH2)4)][Orn][Tic][Pro(3ξ,4ξ-(CH2)4)][Orn][Orn][Orn][Orn]-NH2)	100 (≈ 31.2 µM)	12.5 (≈ 3.91 µM)	> 100	100 (≈ 31.2 µM)	> 100	100 (≈ 31.2 µM)	> 100	100 (≈ 31.2 µM)	100 (≈ 31.2 µM)	50 (≈ 15.6 µM)	50 (≈ 15.6 µM)	12.5 (≈ 3.91 µM)
CSCC[C@H](NC(=O)C(CC(C)C)NC(=O)[C@H](CCC(=O)O)NC(=O)[C@@H]1C2CCCCC2CN1C(=O)[C@@H]1Cc2ccccc2CN1C(=O)[C@H](CCCCN)NC(=O)CNC(=O)[C@H](CC(C)C)NC(=O)CNC(=O)[C@@H]1C2CCCCC2CN1C(=O)[C@@H]1Cc2ccccc2CN1C(=O)C(CCC(=O)O)NC(=O)[C@H](CCCCN)NC(=O)CNC(=O)[C@H](CC(C)C)NC(=O)CNC(=O)[C@@H]1C2CCCCC2CN1C(=O)[C@@H]1Cc2ccccc2CN1C(=O)[C@H](CCCCN)NC(=O)CNC(C)=O)C(=O)NCC(=O)N[C@@H](CCC(=O)O)C(=O)N[C@@H](CCCNC(=N)N)C(N)=O (stereo partly specified) (Ac-GK[Tic][Pro(3ξ,4ξ-(CH2)4)]GLGK[ξE][Tic][Pro(3ξ,4ξ-(CH2)4)]GLGK[Tic][Pro(3ξ,4ξ-(CH2)4)]E[ξL]MGER-NH2)	> 100	> 100	> 100	> 100	> 100	> 100	> 100	> 100	> 100	> 100	> 100	> 100
CC(=O)NCC(=O)N[C@@H](CC(=O)O)C(=O)N[C@@H](Cc1ccccc1)C(=O)N1Cc2ccccc2C[C@H]1C(=O)N1CC2CCCCC2[C@H]1C(=O)NCC(=O)N[C@@H](CCCCN)C(=O)N1Cc2ccccc2C[C@H]1C(=O)N1CC2CCCCC2[C@H]1C(=O)NCC(=O)N[C@@H](CC(=O)O)C(=O)N[C@@H](Cc1ccccc1)C(=O)N1Cc2ccccc2C[C@H]1C(=O)N1CC2CCCCC2[C@H]1C(=O)NCC(=O)N[C@@H](CCCCN)C(=O)N1Cc2ccccc2C[C@H]1C(=O)N[C@@H](CCCCN)C(=O)N[C@@H](CCCCN)C(=O)N[C@@H](CCCCN)C(=O)N[C@@H](CCCCN)C(N)=O (stereo partly specified) (Ac-GDF[Tic][Pro(3ξ,4ξ-(CH2)4)]GK[Tic][Pro(3ξ,4ξ-(CH2)4)]GDF[Tic][Pro(3ξ,4ξ-(CH2)4)]GK[Tic]KKKK-NH2)	12.5 (≈ 4.68 µM)	12.5 (≈ 4.68 µM)	100 (≈ 37.4 µM)	50 (≈ 18.7 µM)	50 (≈ 18.7 µM)	50 (≈ 18.7 µM)	100 (≈ 37.4 µM)	100 (≈ 37.4 µM)	100 (≈ 37.4 µM)	100 (≈ 37.4 µM)	50 (≈ 18.7 µM)	12.5 (≈ 4.68 µM)
CC(=O)NCCC(=O)N[C@@H](Cc1ccc(F)cc1)C(=O)N1Cc2ccccc2C[C@H]1C(=O)N1CC2CCCCC2[C@H]1C(=O)NCCC(=O)N[C@@H](CCCCN)C(=O)N1Cc2ccccc2C[C@H]1C(=O)N1CC2CCCCC2[C@H]1C(=O)NCCC(=O)N[C@@H](Cc1ccc(F)cc1)C(=O)N1Cc2ccccc2C[C@H]1C(=O)N1CC2CCCCC2[C@H]1C(=O)NCCC(=O)N[C@@H](CCCCN)C(=O)N1Cc2ccccc2C[C@H]1C(=O)N[C@@H](CN)C(=O)N[C@@H](CN)C(=O)N[C@@H](CN)C(=O)N[C@@H](CN)C(=O)NC(C)=O (stereo partly specified) (Ac-[βAla][Phe(4-F)][Tic][Pro(3ξ,4ξ-(CH2)4)][βAla]K[Tic][Pro(3ξ,4ξ-(CH2)4)][βAla][Phe(4-F)][Tic][Pro(3ξ,4ξ-(CH2)4)][βAla]K[Tic][Dap][Dap][Dap]-X1)	12.5 (≈ 5.19 µM)	12.5 (≈ 5.19 µM)	100 (≈ 41.5 µM)	50 (≈ 20.8 µM)	> 100	50 (≈ 20.8 µM)	> 100	> 100	> 100	100 (≈ 41.5 µM)	–	–
CC(=O)NCCCC(=O)N[C@@H](Cc1ccccc1)C(=O)N1Cc2ccccc2C[C@H]1C(=O)N1CC2CCCCC2[C@H]1C(=O)NCCCC(=O)N[C@@H](CCCCN)C(=O)N1Cc2ccccc2C[C@H]1C(=O)N1CC2CCCCC2[C@H]1C(=O)NCCCC(=O)N[C@@H](Cc1ccccc1)C(=O)N1Cc2ccccc2C[C@H]1C(=O)N1CC2CCCCC2[C@H]1C(=O)NCCCC(=O)N[C@@H](CCCCN)C(=O)N1Cc2ccccc2C[C@H]1C(=O)N[C@@H](CCCCN)C(=O)N[C@@H](CCCCN)C(=O)N[C@@H](CCCCN)C(=O)N[C@@H](CCCCN)C(=O)N[C@@H](CCCCN)C(N)=O (stereo partly specified) (Ac-[GABA]F[Tic][Pro(3ξ,4ξ-(CH2)4)][GABA]K[Tic][Pro(3ξ,4ξ-(CH2)4)][GABA]F[Tic][Pro(3ξ,4ξ-(CH2)4)][GABA]K[Tic]KKKKK-NH2)	–	–	> 100	> 100	> 100	> 100	> 100	> 100	> 100	> 100	–	–

Reference: ChEMBL document CHEMBL2375306, “Antimicrobial peptides containing unnatural amino acid exhibit potent bactericidal activity against ESKAPE pathogens” (Bioorg Med Chem, 2013)
